According to patent publication US9359342B2, “Protein disulfide isomerase inhibiting anticancer agents” (THE CLEVELAND CLINIC FOUNDATION, priority 2013, dated 2016):

Key:
recombinant PDI = recombinant PDI (Homo sapiens, UniProt P07237); experiment: PDI activity assay (di-eosin-di-gluthathione, eGSSG); assay type: biochemical; settings: for PDI Activity at 10 μM (%): compound at 10 μM; for IC50: recombinant PDI, di-eosin-di-gluthathione assay
Protocol: PDI activity assay: The di-eosin-di-gluthathione assay was performed essentially as described (Raturi, A. and Mutus, B Free Radical Biology & Medicine 43; 2007) with the minor modification that we used gluthathione instead of DTT as reducing agent. Briefly, recombinant PDI was incubated with CC642 or analogs in potassium-based assay buffer at 37° C. before reactions were started by addition of gluthathione and di-eosin-di-gluthathione. Release of eosin was measured every 60 seconds for 30 min using excitation/emission filters of 525 nm/545 nm, respectively.
(§1) Next, MM1.S cells were treated with B-CCF642 and purified lysates of treated and untreated cells for B-CCF642 binding proteins using streptavidin beads followed by SDS-PAGE and mass spectroscopy for protein sequencing of a band that contained biotin signal. Among 10 proteins that were only recovered from treated cells PDI was the most abundant but HSP70 family members were also recovered. To test whether HSP70 family members were inhibited by CCF642, chaperone assays were performed that tested rearrangement of partially denatured luciferase. […] However, PDI function, as assessed by the eGSSG assay which measures PDI's reducing capacity, was inhibited by CCF642 (table 1). […] To determine whether PDI activity is inhibited in vivo, the inventors performed IRE1-α immunoblots after CCF642 treatment of MM1.S cells. IRE1-α acts as a sensor for misfolded proteins in the ER and undergoes oligomerization after it binds to misfolded proteins which changes its conformation into an active state. Lavoie et al., Trends in biochemical sciences, 39(10):475-486 (2014). Within 15 min CCF642 caused IRE1-α oligomerization (FIG. 6) which was associated with increase in protein ubiquitination (FIGS. 2b and 4), a well-documented consequence of reduction in PDI activity. Lee et al., EMBO molecular medicine. 6(6):732-743 (2014).

MM1.S = MM1.S myeloma cell viability; assay type: cell-based; settings: Homo sapiens; for viability at 6.75 µM: MM1.S, compound at 6.75 μM, read-out: MM1.S Viable cells at 6.75 μM (%); for IC50: MM1.S myeloma cells
Source text: Cell lines: Multiple myeloma cell lines MM1.S, MM1.R, NCI-H929 were obtained from ATCC. MM cell lines KMS-12-PE and KMS-12-BM were from the JCRB, JJN-3 from DSMZ, and 5TGM1-luc cells were from Dr. Yoneda at the University of Texas Health Science at San Antonio. HRMM.09 cells were generated in the inventor's lab from a patient who developed refractory myeloma after treatment with steroids, IMiD, proteasome inhibitors, DNA alkylators, and anthracyclines. MM1.S-luc and HRMM.09-luc were generated in the inventor's laboratory by transduction with Cignal™ firefly luciferase control lentivirus obtained from Qiagen™. Lymphoma cells were generated by Mitchell Smith. All MM and lymphoma cells were grown in RPMI 1640 (NaCl 103.45 mM, NaCO3 23.81 mM, Na2HPO4 5.63 mM, KCl 5.33 mM, Ca(NO3)2 4H2O 0.424 mM, MgSO4 0.407 mM, pH around 7.2), supplemented with 10% fetal bovine serum, penicillin G (50 units ml^−1), and streptomycin ([…]). HS-5 cells were grown in appropriate cell culture media. Normal bone marrow cells were obtained from discarded bags of bone marrow grafts from healthy donors and either kept in RPMI with 25% (v/v) HS-5 supernatant for up to 14 days for isolated cytotoxicity assays or frozen and thawed for the sandwich assay. All cells were cultured at 37° C., 5% CO2 in humidified air.

MM cell lines = experiment: Cytotoxicity in MM cell line panel (trypan blue exclusion, Vicell); assay type: cell-based; settings: 72 h, all 8 MM cell lines tested
Protocol: (§2) FIGS. 2(A-B) provide a graph and immunoblot showing the effect of CCF642 on cancer and protein ubiquitination, with FIG. 2(A) showing the activity of CCF642 against a panel of MM and lymphoma cells. Seventy two hours after CCF642 administration, the IC50 by trypan blue exclusion (Vicell™) is <1 μM for all MM and all but one lymphoma line. Normal bone marrow (NL BM) tolerated CCF642; myeloid cells were less sensitive, especially GDM1, with E3 ligase domain mutation of c-CBL and FIG. 2(B) showing that an increase in protein ubiquitination is accompanied by loss of myeloma survival factors in MM cells Immunoblots of MM1.S cells show rise followed by decrease of protein ubiquitination with loss of MM survival factors.
(§3) Cell lines: Multiple myeloma cell lines MM1.S, MM1.R, NCI-H929 were obtained from ATCC. MM cell lines KMS-12-PE and KMS-12-BM were from the JCRB, JJN-3 from DSMZ, and 5TGM1-luc cells were from Dr. Yoneda at the University of Texas Health Science at San Antonio. HRMM.09 cells were generated in the inventor's lab from a patient who developed refractory myeloma after treatment with steroids, IMiD, proteasome inhibitors, DNA alkylators, and anthracyclines. MM1.S-luc and HRMM.09-luc were generated in the inventor's laboratory by transduction with Cignal™ firefly luciferase control lentivirus obtained from Qiagen™. Lymphoma cells were generated by Mitchell Smith. […]

lymphoma cell lines = experiment: Cytotoxicity in lymphoma cell line panel (trypan blue exclusion, Vicell); assay type: cell-based; settings: 6 of 7 (all but one) lymphoma lines, 72 h
Protocol: as §2, §3

[1] = system: normal bone marrow (NL BM) cells; experiment: Cytotoxicity in normal bone marrow; assay type: cell-based; settings: three independent normal bone marrow samples; doses up to 6.75 μM
Protocol: as §2, §3

Tolerability in mice = assay type: in vivo, C57BL/KaLwRij mice
IRE1-α = IRE1-α oligomerization immunoblot in MM1.S cells; assay type: cell-based
Protocol: as §1

protein ubiquitination = experiment: Protein ubiquitination time course immunoblot in MM1.S cells; assay type: cell-based
Source text: Protein ubiquitination and depletion of c-MYC, IRF4, and NF-κB. Initial tests were aimed at excluding proteasome inhibitors from further study and used WB for accumulation of ubiquitinated proteins after one day of therapy. […] Another proteasomally regulated protein, p27, disappeared as well.

Sequence of recombinant PDI (P07237 18-508, species assumed): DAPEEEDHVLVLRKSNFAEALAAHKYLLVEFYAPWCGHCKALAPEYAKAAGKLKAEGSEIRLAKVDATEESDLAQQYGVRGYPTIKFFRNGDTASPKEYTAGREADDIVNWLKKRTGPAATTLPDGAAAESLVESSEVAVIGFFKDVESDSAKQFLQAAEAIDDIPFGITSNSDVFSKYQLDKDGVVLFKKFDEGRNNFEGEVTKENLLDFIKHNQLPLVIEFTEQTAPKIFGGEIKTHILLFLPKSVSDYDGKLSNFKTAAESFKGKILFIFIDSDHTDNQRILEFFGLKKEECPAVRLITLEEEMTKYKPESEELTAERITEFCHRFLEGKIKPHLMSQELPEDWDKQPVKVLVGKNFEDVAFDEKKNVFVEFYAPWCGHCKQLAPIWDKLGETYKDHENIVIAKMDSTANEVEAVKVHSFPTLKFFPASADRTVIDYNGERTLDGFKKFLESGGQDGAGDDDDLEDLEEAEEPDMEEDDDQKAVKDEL

PDI Activity at 10 μM (%) (recombinant PDI)	IC50 (MM1.S)	IC50 (recombinant PDI)	Compound	viability at 6.75 µM (MM1.S)	other results
72.37%	> 6750 nM	–	COc1ccc(N2C(=O)C(=Cc3ccc(C(F)(F)F)s3)SC2=S)cc1 [642-20]	92.9%	–
71.54%	> 6750 nM	–	COc1ccc(N2C(=O)C(=Cc3ccc(C(=O)O)s3)SC2=S)cc1 [642-21]	102%	–
5.92%	610 nM	1900 nM	N#Cc1ccc(N2C(=O)C(=Cc3ccc([N+](=O)[O-])s3)SC2=S)cc1 [642-23]	17.5%	–
42.12%	> 6750 nM	8660 nM	COc1ccc(N2C(=O)/C(=C/c3cccc([N+](=O)[O-])c3)SC2=S)cc1 [642-24]	93.5%	–
40.37%	> 6750 nM	3070 nM	C=CCc1cccc(/C=C2\SC(=S)N(c3ccc(OC)cc3)C2=O)c1O [642-25]	92.8%	–
–	–	–	CC(C)C[C@H](NC(=O)[C@H](Cc1ccccc1)NC(=O)c1cnccn1)B(O)O [bortezomib, reference compound]	–	maximal tolerated dose (Tolerability in mice; SC twice a week, C57BL/KaLwRij mice): 0.5 mg/kg

Compound	PDI Activity at 10 μM (%) (recombinant PDI)	IC50 (MM1.S)	IC50 (recombinant PDI)	viability at 6.75 µM (MM1.S)	other results
COc1ccc(N2C(=O)/C(=C/c3ccc([N+](=O)[O-])s3)SC2=S)cc1 [642-Parent]	21.51%	250 nM	2440 nM	8.06%	IC50 (MM cell lines): < 1000 nM; IC50 (MM cell lines; listed as CCF642): ~500 nM; IC50 (lymphoma cell lines): < 1000 nM; IC50 [1]: > 6750 nM; tolerability in 5TGM1-luc engrafted mice (Tolerability in mice; C57BL/KaLwRij mice systemically engrafted with 5TGM1-luc): well tolerated; tolerability IV (Tolerability in mice; albumin-based formulation (10-20% BSA, saline, 10% DMSO) given IV): tolerated by mice when given IV; time to IRE1-α oligomerization (IRE1-α): ≤ 15 min; time to increase in protein ubiquitination (protein ubiquitination): ≤ 30 min
